Like-named read-outs stand apart in the source and are kept apart here.
How the values were obtained:
[1] = system: Puccinia graminis var. tritici; assay: whole plant or invertebrate; assay type: in vivo; settings: 192 h, read-out: % control wheat rust in preventive test
Erysiphe cichoracearum [2] = assay: cucumber powdery mildew photostability test; assay type: in vivo; settings: Golovinomyces cichoracearum, 168 h, xenon arc 3500 foot candles 16 hours, 7 days
Description: (§1) Compounds of this invention are dissolved in acetone in an amount equal to 6% of the final volume and then suspended at a concentration of 20 ppm in purified water containing 25 ppm of the surfactant Alkanol® XC (sodium alkyl naphthalene sulfonate). This suspension is sprayed to the point of run-off in cucumber seedlings. When the foliage is dry, the plants are exposed to 3500 foot candles of light from a xenon arc source for a period of 16 hours. This light source approximates the spectrum of natural sunlight, and is used to assess photostability of the compounds of this invention on plant foliage. The following day, the plants are inoculated with a spore suspension of the fungus Erysiphe cichoracearum and incubated in a growth room for 7 days. Disease ratings are then made.

Venturia inaequalis [3] = assay: apple scab residual wash-off test; assay type: in vivo; settings: 1/2 inch simulated rainfall, 10-12 days
Description: (§2) Compounds of this invention are dissolved in acetone in an amount equal to 6% of the final volume and then suspended at a concentration of 20 ppm in purified water containing 25 ppm of the surfactant Alkanol® XC (sodium alkyl naphthalene sulfonate). This suspension is sprayed to the point of run-off on apple seedlings. The following day, 1/2 inch of simulated rainfall is applied to the foliage of the plants. When the foliage is dry, the plants are inoculated with a spore suspension of the fungus Venturia inaequalis and incubated in a growth room for 10-12 days. Disease ratings are then made. […] Phytotoxicity in the form of foliar burn was observed on the plants in association with disease control.

Erysiphe cichoracearum [4] = assay: cucumber powdery mildew residual wash-off test; assay type: in vivo; settings: Golovinomyces cichoracearum, 168 h, 1/2 inch simulated rainfall, 7 days
Description: Compounds of this invention are dissolved in acetone in an amount equal to 6% of the final volume and then suspended at a concentration of 20 ppm in purified water containing 25 ppm of the surfactant Alkanol® XC (sodium alkyl naphthalene sulfonate). This suspension is sprayed to the point of run-off on cucumber seedlings. The following day, 1/2 inch of simulated rainfall is applied to the foliage of the plants. When the foliage is dry, the plants are inoculated with a spore suspension on the fungus Erysiphe cichoracearum and incubated in a growth room for 7 days. Disease ratings are then made.

[5] = system: Puccinia graminis var. tritici; assay: whole plant or invertebrate; assay type: in vivo; settings: 192 h, read-out: % control wheat rust in residual wash-off test
[6] = system: adult cotton boll weevils (Anthonomus grandis); assay: adult cotton boll weevils spray test; assay type: in vivo; settings: 1% acetone solution, 24 hours
Description: Five adult cotton boll weevils (Anthonomus grandis) were confined in a 4-oz. wide mouth jar. These were sprayed with a 1% acetone solution of the indicated compounds. Percent mortality after 24 hours is set forth below.

[7] = system: Eggs of the beet armyworm (Spodoptera exigua); assay: beet armyworm egg (ovicidal) test, % eggs failing to hatch; assay type: in vivo; settings: 72 h, three days, read-out: % Control (% eggs failing to hatch); for mortality at 1 %: 1% in acetone; for mortality at 200 ppm: 200 ppm in acetone
Description: Eggs of the beet armyworm (Spodoptera exigua), laid on cellophane discs each containing 50-75 eggs, were placed in petri dishes and lightly sprayed with 1% concentrations of the indicated compounds in acetone solution. Three days later, percent control (% eggs failing to hatch) was determined.
Eggs of the beet armyworm (Spodoptera exigua), laid on cellophane discs each containing 50-75 eggs, were placed in petri dishes and lightly sprayed with 200 ppm concentration of the indicated compounds in acetone solution. Three days later, percent control (% eggs failing to hatch) was determined.

Rhizoctonia solani = Rhizoctonia solani infested soil test, cotton; assay type: in vivo; settings: 192 h, 1.5 kg/ha, 8 days
From the text: (§3) Rhizoctonia solani-infested soil was placed in a 900 cc cup. Compounds of this invention were mixed at a rate of 1.5 kg/ha in a section 2" wide×2" deep×4" long to simulate an in-the-row application. Five cotton seeds were planted in the treated soil. After 8 days, the cotton plants were removed and rated for disease control.

Erisyphe cichoracearum = assay: cucumber powdery mildew curative test; assay type: in vivo; settings: Cucumis sativus, 144 h, sprayed day after inoculation, additional 6 days
From the text: Cucumber plants are inoculated with a spore suspension of the fungus Erisyphe cichoracearum and in a growth room overnight. The following day, the plants are sprayed to the point of run-off with a suspension prepared by dissolving compounds of this invention in acetone in an amount equal to 6% of the final volume and then suspended at a concentration of 20 ppm in purified water containing 25 ppm of the surfactant Alkanol® XC (sodium alkyl naphthalene sulfonate). Plants are returned to the growth room for an additional 6 days when disease ratings are then made. […] Phytotoxicity in the form of foliar burn or growth reduction was observed on some of the plants in association with disease control.

adult houseflies = adult houseflies spray test; assay type: in vivo, housefly; settings: Musca domestica; 1% acetone solutions, 24 hours
From the text: Twenty adult houseflies were confined in each of several cylindrical stainless steel cages (7.5 cm D×4 cm high) with wire screens of the ends. These were sprayed with 1% acetone solutions of the indicated compounds.

[8] = system: Puccinia graminis var. tritici; assay: whole plant or invertebrate; assay type: in vivo; settings: 192 h, read-out: % control wheat rust in a photostability test
Phytophthora infestans [9] = assay: whole plant or invertebrate; assay type: in vivo; settings: in Solanum lycopersicum, 96 h, read-out: % control tomato late blight in a residual wash-off test
Pythium = Pythium infested soil test, cotton; assay type: in vivo; settings: 1.5 kg/ha, 8 days
From the text: as §3, with “Pythium infested” for “Rhizoctonia solani-infested”

Venturia inaequalis [10] = assay: apple scab photostability test; assay type: in vivo; settings: xenon arc 3500 foot candles 16 hours, 10-12 days
Description: as §1, with “on apple” for “in cucumber”, “Venturia inaequalis” for “Erysiphe cichoracearum”, “10-12” for “7”, “made. […] Phytotoxicity in the form of foliar burn was observed on some of the plants in association with disease control.” for “made.”

Erysiphe cichoracearum [11] = assay: cucumber powdery mildew preventive test; assay type: in vivo; settings: Golovinomyces cichoracearum, 168 h, 7 days
Description: Compounds of this invention are dissolved in acetone in an amount equal to 6% of the final volume and then suspended at a concentration of 20 ppm in purified water containing 25 ppm of the surfactant Alkanol® XC (sodium alkyl naphthalene sulfonate). This suspension is sprayed to the point of run-off on cucumber seedlings. The following day, the plants are inoculated with a spore suspension of the fungus Erysiphe cichoracearum and incubated in a growth room for 7 days. Disease ratings are then made. […] Phytotoxicity in the form of foliar burn or growth reduction was observed on some of the plants in association with disease control.

Phytophthora infestans [12] = assay type: in vivo; settings: 20 ppm, 4 days
Phytophthora infestans [13] = assay: whole plant or invertebrate; assay type: in vivo; settings: in Solanum lycopersicum, 96 h, read-out: % control tomato late blight in a photostability test
Venturia inaequalis [14] = assay: apple scab preventive test; assay type: in vivo; settings: 10-12 days
Description: as §2, with “following day, the plants” for “following day, 1/2 inch of simulated rainfall is applied to the foliage of the plants. When the foliage is dry, the plants”, “observed on some of the plants” for “observed on the plants”

Row | SMILES | pest or weed control at 20 ppm [1] [%] | pest or weed control at 20 ppm (Erysiphe cichoracearum [2]) [%] | pest or weed control at 20 ppm (Venturia inaequalis [3]) [%] | pest or weed control at 20 ppm (Erysiphe cichoracearum [4]) [%] | pest or weed control at 20 ppm [5] [%] | mortality at 1 % [6] [%] | mortality at 1 % [7] [%] | pest or weed control at 1500 g/ha (Rhizoctonia solani) [%] | pest or weed control at 20 ppm (Erisyphe cichoracearum) [%] | mortality at 1 % (adult houseflies) [%] | pest or weed control at 20 ppm [8] [%] | pest or weed control at 20 ppm (Phytophthora infestans [9]) [%] | % control Pythium (Pythium) [%] | pest or weed control at 20 ppm (Venturia inaequalis [10]) [%] | pest or weed control at 20 ppm (Erysiphe cichoracearum [11]) [%] | % control tomato late blight in a preventive test (Phytophthora infestans [12]) [%] | pest or weed control at 20 ppm (Phytophthora infestans [13]) [%] | pest or weed control at 20 ppm (Venturia inaequalis [14]) [%] | mortality at 200 ppm [7] [%]
1 | O=C1CCCN1SN(c1cc(C(F)(F)F)ccc1Cl)c1c([N+](=O)[O-])cc([N+](=O)[O-])cc1C(F)(F)F | 100 | 97 | 75 | 30 | 100 | 100 | 100 | 90 | 100 | 100 | 100 | 50 | 50 | 50 | 100 |  |  |  | 
2 | COC(=O)CN(SN(c1cc(C(F)(F)F)ccc1Cl)c1c([N+](=O)[O-])cc([N+](=O)[O-])cc1C(F)(F)F)S(=O)(=O)c1ccc(C)cc1 | 30 | 0 | 0 | 0 | 25 |  |  | 50 | 0 |  | 20 | 0 | 50 | 0 | 0 | 0 | 0 | 0 | 
3 | CCCCN(SN(c1cc(C(F)(F)F)ccc1Cl)c1c([N+](=O)[O-])cc([N+](=O)[O-])cc1C(F)(F)F)S(=O)(=O)N(C)C | 100 | 80 | 100 | 98 | 90 | 100 | 100 | 0 | 99 | 100 | 80 | 93 | 0 | 0 | 100 |  | 90 | 100 | 
4 | CN(SN(c1cc(C(F)(F)F)ccc1Cl)c1c([N+](=O)[O-])cc([N+](=O)[O-])cc1C(F)(F)F)S(=O)(=O)c1ccc2ccccc2c1 | 100 | 75 | 100 | 85 | 100 | 100 | 100 | 0 | 50 | 100 | 100 | 100 | 0 | 0 | 100 |  | 100 | 50 | 
5 | Cc1ccc(S(=O)(=O)N(C)SN(c2c(F)cc(F)cc2F)c2c([N+](=O)[O-])cc([N+](=O)[O-])cc2C(F)(F)F)cc1 | 100 | 100 | 100 | 100 | 97 |  |  | 70 | 99 |  | 70 | 100 | 100 | 80 | 100 | 100 | 100 | 100 | 
6 | CN(SN(c1cc(C(F)(F)F)ccc1Cl)c1c([N+](=O)[O-])cc([N+](=O)[O-])cc1C(F)(F)F)S(=O)(=O)c1ccc(Cl)cc1 [4-chloro-N-[N-(2-chloro-5-trifluoromethylphenyl)-N-(2,4-dinitro-6-trifluoromethylphenyl)aminothio]-N-methylbenzenesulfonamide] |  |  |  |  |  |  |  |  |  |  |  |  |  |  |  |  |  |  | 100
7 | COCCN(SN(c1cc(C(F)(F)F)ccc1Cl)c1c([N+](=O)[O-])cc([N+](=O)[O-])cc1C(F)(F)F)S(=O)(=O)c1ccc(C)cc1 [N-[N-[2-chloro-5-(trifluoromethyl)phenyl]-N-[2,4-dinitro-6-trifluoromethylphenyl]aminothio]-N-(2-methoxyethyl)-4-methylbenzenesulfonamide] |  |  |  |  |  |  |  |  |  |  |  |  |  |  |  |  |  |  | 100

Reference: patent US4309425A (priority 1980, dated 1982)
